Measurements as given in patent US20250136619A1, “HETEROBIFUNCTIONAL COMPOUNDS AND THEIR USE IN TREATING DISEASE” (HALDA THERAPEUTICS OPCO, INC., priority 2021, published 2025).

Assays:
BTK = BTK (Homo sapiens (Human), UniProt Q06187); test: KdELECT assay for binding affinity to BTK
How it was run: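 Competition binding of test compound against bead-immobilized biotinylated ligand; kinase as T7 phage fusion or HEK-293-expressed DNA-tagged protein. 11-point 3-fold dilution, 0.9% DMSO final, 1 h room temperature with shaking. Bound kinase eluted with 0.5 μM non-biotinylated ligand and quantified by qPCR; Kd derived.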

CDK1 = CDK1 (Homo sapiens (Human), UniProt P06493); test: KdELECT assay for binding affinity to CDK1
Method: (§1) Compounds were tested using a KdELECT assay. Kinase-tagged T7 phage strains were prepared in an E. coli host derived from the BL21 strain. E. coli were grown to log-phase and infected with T7 phage and incubated with shaking at 32° C. until lysis. The lysates were centrifuged and filtered to remove cell debris. The remaining kinases were produced in HEK-293 cells and subsequently tagged with DNA for qPCR detection. Streptavidin-coated magnetic beads were treated with biotinylated small molecule ligands for 30 minutes at room temperature to generate affinity resins for kinase assays. The liganded beads were blocked with excess biotin and washed with blocking buffer (SeaBlock (Pierce), 1% BSA, 0.05% Tween 20, 1 mM DTT) to remove unbound ligand and to reduce non-specific binding. Binding reactions were assembled by combining kinases, liganded affinity beads, and test compounds in 1×binding buffer (20% SeaBlock, 0.17×PBS, 0.05% Tween 20, 6 mM DTT). Test compounds were prepared as 111X stocks in 100% DMSO. Kd values were determined using an 11-point 3-fold compound dilution series with three DMSO control points. All compounds for Kd measurements are distributed by acoustic transfer (non-contact dispensing) in 100% DMSO. The compounds were then diluted directly into the assays such that the final concentration of DMSO was 0.9%. All reactions performed in polypropylene 384-well plate. Each was a final volume of 0.02 mL. The assay plates were incubated at room temperature with shaking for 1 hour and the affinity beads were washed with wash buffer (1×PBS, 0.05% Tween 20). The beads were then re-suspended in elution buffer (1×PBS, 0.05% Tween 20, 0.5 μM nonbiotinylated affinity ligand) and incubated at room temperature with shaking for 30 minutes. The kinase concentration in the eluates was measured by qPCR.

BRD4-BD2 = BRD4-BD2 (Homo sapiens (Human), UniProt O60885); test: bromoKdELECT assay for binding affinity to BRD4-BD2
Method: (§2) Compounds were tested using a bromoKdELECT assay. T7 phage strains displaying bromodomains were grown in parallel in 24-well blocks in an E. coli host derived from the BL21 strain. E. coli were grown to log-phase and infected with T7 phage from a frozen stock (multiplicity of infection=0.4) and incubated with shaking at 32° C. until lysis (90-150 minutes). The lysates were centrifuged (5,000×g) and filtered (0.2 μm) to remove cell debris. Streptavidin-coated magnetic beads were treated with biotinylated small molecule or acetylated peptide ligands for 30 minutes at room temperature to generate affinity resins for bromodomain assays. The liganded beads were blocked with excess biotin and washed with blocking buffer (SeaBlock (Pierce), 1% BSA, 0.05% Tween 20, 1 mM DTT) to remove unbound ligand and to reduce nonspecific phage binding. Binding reactions were assembled by combining bromodomains, liganded affinity beads, and test compounds in 1×binding buffer (17% SeaBlock, 0.33×PBS, 0.04% Tween 20, 0.02% BSA, 0.004% Sodium azide, 7.4 mM DTT). Test compounds were prepared as 1000X stocks in 100% DMSO. Kds were determined using an 11-point 3-fold compound dilution series with one DMSO control point. All compounds for Kd measurements are distributed by acoustic transfer (non-contact dispensing) in 100% DMSO. The compounds were then diluted directly into the assays such that the final concentration of DMSO was 0.09%. All reactions performed in polypropylene 384-well plates. Each was a final volume of 0.02 ml. The assay plates were incubated at room temperature with shaking for 1 hour and the affinity beads were washed with wash buffer (1×PBS, 0.05% Tween 20). The beads were then resuspended in elution buffer (1×PBS, 0.05% Tween 20, 2 μM non-biotinylated affinity ligand) and incubated at room temperature with shaking for 30 minutes. The bromodomain concentration in the eluates was measured by qPCR.

androgen receptor = androgen receptor (Homo sapiens, UniProt P10275); test: Radioligand ([3H]methyltrienolone) assay for binding affinity to androgen receptor; details: cell cytosol, 1 nM [3H]methyltrienolone
Method: Fractions of cell cytosol ([…]) were incubated for 24 hr at 4° C. with 1 nM [^3H]methyltrienolone in the absence or presence of the test compound in a buffer containing 25 mM Hepes-Tris (pH 7.4), 1 mM EDTA, 10 mM Na2MoO4, 2 mM DTT, 5 μM triamcinolone acetonide, and 10% glycerol. Nonspecific binding was determined in the presence of 1 μM testosterone. Following incubation, the samples were filtered rapidly under vacuum through glass fiber filters (GF/B, Packard) presoaked with 0.3% PEI and rinsed several times with ice-cold 50 mM Tris —HCl using a 96-sample cell harvester (Unifilter, Packard). The filters were dried then counted for radioactivity in a scintillation counter (Topcount, Packard) using a scintillation cocktail (Microscint 0, Packard). The results are expressed as a percent inhibition of the control radioligand specific binding. The standard reference compound is testosterone, which is tested in each experiment at several concentrations to obtain a competition curve from which its IC50 is calculated.

BRD4-BD1 = BRD4-BD1 (Homo sapiens (Human), UniProt O60885); test: bromoKdELECT assay for binding affinity to BRD4-BD1
Method: as §2

PLK1 = PLK1 (Homo sapiens (Human), UniProt P53350); test: KdELECT assay for binding affinity to PLK1
Method: as §1, with “DMSO.” for “DMSO. The compounds were then diluted directly into the assays such that the final concentration of DMSO was 0.9%. All reactions performed in polypropylene 384-well plate. Each was a final volume of 0.02 mL. The assay plates were incubated at room temperature with shaking for 1 hour and the affinity beads were washed with wash buffer (1×PBS, 0.05% Tween 20). The beads were then re-suspended in elution buffer (1×PBS, 0.05% Tween 20, 0.5 μM nonbiotinylated affinity ligand) and incubated at room temperature with shaking for 30 minutes. The kinase concentration in the eluates was measured by qPCR.”
The compounds were then diluted directly into the assays such that the final concentration of DMSO was 0.9%. […] The kinase concentration in the eluates was measured by qPCR.

KIF11 = KIF11 (Homo sapiens (Human), UniProt P52732); test: Enzyme-coupled ATPase assay for inhibition of KIF11; format: biochemical; details: KIF11 ATPase rate, 1 mM ATP
Method: The ATPase rate for Kif11 was monitored using an enzyme-coupled assay. Porcine brain microtubules (Cat #MT002) were purchased from Cytoskeleton (Denver, CO) and polymerized as per manufacturer's instructions and stored at 1 mg/ml at −80° C. GST-tagged Kif11/Eg5 (Cat #EG01-XL) and the Kinesin ELIPA Biochem Kit (Cat #BK060) was also purchased from Cytoskeleton. Taxol, microtubules, 7-methylthioguanosine (MESG), and purine nucleoside phosphorylase (PNP) were added to final concentrations of […], 0.05 mg/mL, […], 1U/m, 1 mM in EPLIA Reaction Buffer and allowed to incubate at room temperature for 15 minutes under rocking. Kif11 was then added at a final concentration of […] and allowed to incubate at room temperature for an additional 15 minutes. Master mix ([…]) was added to a black 384-well plate (Corning 3575), to which […] of DMSO or compound were added to appropriate wells. Plates were incubated at room temperature for 2 hours. ATPase reactions were initiated by addition of 1 mM ATP and monitored by OD340 every 1 minute over the course of 2 hours. The rate of the reaction was taken from the linear part of the resulting curve. IC50 was determined by plotting inhibitor concentration v. ATPase rate.

Sequence of CDK1 (P06493 whole entry): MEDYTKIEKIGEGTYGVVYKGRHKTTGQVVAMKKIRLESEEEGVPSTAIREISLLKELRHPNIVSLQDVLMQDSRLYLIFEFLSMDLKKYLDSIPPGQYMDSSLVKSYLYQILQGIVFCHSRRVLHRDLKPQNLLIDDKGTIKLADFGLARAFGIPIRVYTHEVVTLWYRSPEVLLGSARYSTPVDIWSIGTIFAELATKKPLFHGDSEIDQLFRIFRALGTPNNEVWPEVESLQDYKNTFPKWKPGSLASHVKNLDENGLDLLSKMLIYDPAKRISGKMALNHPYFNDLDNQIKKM
Sequence of KIF11 (P52732 1-368): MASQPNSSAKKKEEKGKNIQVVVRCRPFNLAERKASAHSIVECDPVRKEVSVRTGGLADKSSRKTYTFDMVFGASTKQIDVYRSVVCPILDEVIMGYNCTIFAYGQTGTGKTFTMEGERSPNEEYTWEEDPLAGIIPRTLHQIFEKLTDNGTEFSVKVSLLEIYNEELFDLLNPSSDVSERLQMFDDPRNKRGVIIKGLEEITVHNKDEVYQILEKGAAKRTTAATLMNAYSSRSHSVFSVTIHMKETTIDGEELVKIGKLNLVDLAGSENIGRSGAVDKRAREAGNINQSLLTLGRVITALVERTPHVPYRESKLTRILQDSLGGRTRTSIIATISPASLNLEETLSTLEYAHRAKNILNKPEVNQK
Sequence of BTK (Q06187 whole entry, the tested form may be a part): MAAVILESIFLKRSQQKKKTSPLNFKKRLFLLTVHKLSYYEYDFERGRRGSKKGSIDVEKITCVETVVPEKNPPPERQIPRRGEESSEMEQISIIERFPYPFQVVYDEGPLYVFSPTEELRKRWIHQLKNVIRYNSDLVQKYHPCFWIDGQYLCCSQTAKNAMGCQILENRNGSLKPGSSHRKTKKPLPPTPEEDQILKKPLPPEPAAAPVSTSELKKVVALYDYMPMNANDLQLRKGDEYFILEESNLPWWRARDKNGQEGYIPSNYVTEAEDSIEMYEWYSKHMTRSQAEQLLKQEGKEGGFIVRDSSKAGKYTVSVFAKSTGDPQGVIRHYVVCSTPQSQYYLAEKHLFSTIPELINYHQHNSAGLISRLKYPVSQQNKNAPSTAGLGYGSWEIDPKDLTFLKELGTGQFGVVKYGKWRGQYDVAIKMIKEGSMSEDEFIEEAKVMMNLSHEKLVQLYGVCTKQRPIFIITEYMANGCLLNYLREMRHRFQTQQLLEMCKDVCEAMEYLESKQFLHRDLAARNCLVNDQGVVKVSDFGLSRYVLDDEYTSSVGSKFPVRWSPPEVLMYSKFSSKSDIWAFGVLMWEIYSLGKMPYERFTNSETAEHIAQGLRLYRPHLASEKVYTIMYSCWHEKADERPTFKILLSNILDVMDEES
Sequence of androgen receptor (P10275 whole entry, looked up): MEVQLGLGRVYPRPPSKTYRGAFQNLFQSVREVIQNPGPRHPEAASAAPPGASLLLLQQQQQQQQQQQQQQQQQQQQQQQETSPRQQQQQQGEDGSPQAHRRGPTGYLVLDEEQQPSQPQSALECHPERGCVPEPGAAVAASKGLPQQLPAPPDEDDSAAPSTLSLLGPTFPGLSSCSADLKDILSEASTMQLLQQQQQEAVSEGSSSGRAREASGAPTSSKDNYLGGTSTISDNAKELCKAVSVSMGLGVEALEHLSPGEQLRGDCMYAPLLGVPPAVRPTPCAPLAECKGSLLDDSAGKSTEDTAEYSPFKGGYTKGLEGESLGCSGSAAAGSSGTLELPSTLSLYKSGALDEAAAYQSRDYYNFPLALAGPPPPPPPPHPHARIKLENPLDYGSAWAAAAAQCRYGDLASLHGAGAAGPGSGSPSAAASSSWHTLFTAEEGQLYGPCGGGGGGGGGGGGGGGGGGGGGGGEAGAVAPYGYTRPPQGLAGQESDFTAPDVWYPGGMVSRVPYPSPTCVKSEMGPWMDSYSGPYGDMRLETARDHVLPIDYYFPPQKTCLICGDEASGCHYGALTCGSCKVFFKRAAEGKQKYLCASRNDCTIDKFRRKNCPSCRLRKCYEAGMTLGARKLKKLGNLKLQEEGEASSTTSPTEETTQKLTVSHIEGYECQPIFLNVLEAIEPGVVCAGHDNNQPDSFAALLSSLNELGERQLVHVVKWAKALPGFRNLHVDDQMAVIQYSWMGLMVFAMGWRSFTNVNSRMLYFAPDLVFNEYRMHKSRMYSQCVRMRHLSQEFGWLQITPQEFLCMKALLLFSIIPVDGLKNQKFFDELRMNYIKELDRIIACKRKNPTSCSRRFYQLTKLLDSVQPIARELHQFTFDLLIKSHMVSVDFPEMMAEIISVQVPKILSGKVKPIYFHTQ
Sequence of PLK1 (P53350 whole entry): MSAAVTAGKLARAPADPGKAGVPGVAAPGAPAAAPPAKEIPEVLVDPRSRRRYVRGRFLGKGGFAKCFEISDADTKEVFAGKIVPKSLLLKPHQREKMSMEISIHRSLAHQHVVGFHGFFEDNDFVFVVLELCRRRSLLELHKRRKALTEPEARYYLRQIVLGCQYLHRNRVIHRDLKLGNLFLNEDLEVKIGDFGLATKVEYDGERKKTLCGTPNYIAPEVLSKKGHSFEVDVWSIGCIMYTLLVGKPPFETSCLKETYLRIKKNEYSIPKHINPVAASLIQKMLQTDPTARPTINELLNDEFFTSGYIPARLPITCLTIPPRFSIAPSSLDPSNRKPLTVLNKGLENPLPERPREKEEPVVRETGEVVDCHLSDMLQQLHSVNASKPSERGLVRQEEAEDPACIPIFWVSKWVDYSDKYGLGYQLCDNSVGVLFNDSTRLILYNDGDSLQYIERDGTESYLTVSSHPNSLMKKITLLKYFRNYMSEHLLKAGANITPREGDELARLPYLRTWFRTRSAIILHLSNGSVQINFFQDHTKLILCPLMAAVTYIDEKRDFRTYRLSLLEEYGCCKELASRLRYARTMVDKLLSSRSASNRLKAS

Row | SMILES | Kd (BTK) [nM] | Kd (CDK1) [nM] | IC50 (KIF11) [nM] | also measured
1 | NC(=O)c1c(F)cccc1Nc1nc(Nc2ccc(S(=O)(=O)NCCOCCOC/C=C/C(=O)N3CCC[C@@H](n4nc(-c5ccc(Oc6ccccc6)cc5)c5c(N)ncnc54)C3)cc2)ncc1Br [Compound I-13, 2-[[2-[4-[2-[2-[(E)-4-[(3R)-3-[4-amino-3-(4-phenoxyphenyl)pyrazolo[3,4-d]pyrimidin-1-yl]-1-piperidyl]-4-oxo-but-2-enoxy]ethoxy]ethylsulfamoyl]anilino]-5-bromo-pyrimidin-4-yl]amino]-6-fluoro-benzamide] | 50 to 500 | 500 to 2500 | – | –
2 | NC(=O)c1c(F)cccc1Nc1nc(Nc2ccc(S(=O)(=O)NCCOCCOCCOCCOCCOCCOC/C=C/C(=O)N3CCC[C@@H](n4nc(-c5ccc(Oc6ccccc6)cc5)c5c(N)ncnc54)C3)cc2)ncc1Br [Compound I-15] | < 50 | 50 to 500 | – | –
3 | CN(C/C=C/C(=O)N1CCC[C@@H](n2nc(-c3ccc(Oc4ccccc4)cc3)c3c(N)ncnc32)C1)CCCN1CCN(CCCNS(=O)(=O)c2ccc(Nc3ncc(Br)c(Nc4cccc(F)c4C(N)=O)n3)cc2)CC1 [Compound I-18, 2-[[2-[4-[3-[4-[3-[[(E)-4-[(3R)-3-[4-amino-3-(4-phenoxyphenyl)pyrazolo[3,4-d]pyrimidin-1-yl]-1-piperidyl]-4-oxo-but-2-enyl]-methyl-amino]propyl]piperazin-1-yl]propylsulfamoyl]anilino]-5-bromo-pyrimidin-4-yl]amino]-6-fluoro-benzamide] | < 50 | < 50 | – | –
4 | Cc1sc2c(c1C)C(c1ccc(Cl)cc1)=N[C@@H](CC(=O)NCCOCCOCCOCCOCCOCCOCCOc1ccc(C(=O)NC3C(C)(C)C(Oc4ccc(C#N)c(Cl)c4)C3(C)C)cc1)c1nnc(C)n1-2 (stereo partly shown) [Compound I-34] | – | – | – | Kd (BRD4-BD2): 50 to 500 nM; Kd (androgen receptor): < 50 nM; Kd (BRD4-BD1): 50 to 500 nM
5 | CCC1C(=O)N(C)c2cnc(Nc3ccc(C(=O)NCCN(C)C(=O)CO[C@H]4CC[C@H]5[C@@H]6CC[C@H]7CC(=O)CC[C@]7(C)[C@H]6CC[C@]45C)cc3OC)nc2N1C1CCCC1 (stereo partly shown) [Compound I-41] | – | – | – | Kd (PLK1): < 50 nM
6 | CCc1cnn2c(NCc3ccc(OCCOCCOCCOCCOCCN(C)C/C=C/C(=O)N4CCC[C@@H](n5nc(-c6ccc(Oc7ccccc7)cc6)c6c(N)ncnc65)C4)nc3)cc(N3CCCC[C@H]3CCO)nc12 [Compound I-43] | < 50 | > 2500 | – | –

Second part, led by results:

Row | Kd (BTK) [nM] | Kd (CDK1) [nM] | IC50 (KIF11) [nM] | SMILES | also measured
7 | – | – | 50 to 500 | CN(OCCOCCOCCOCCOCCOC/C=C/C(=O)N1CCC[C@@H](n2nc(-c3ccc(Oc4ccccc4)cc3)c3c(N)ncnc32)C1)C(=O)N1N=C(c2cc(F)ccc2F)SC1(CCCN)c1ccccc1 (stereo partly shown) [Compound I-49] | –
8 | – | – | < 50 | CN(C/C=C/C(=O)N1CCC[C@@H](n2nc(-c3ccc(Oc4ccccc4)cc3)c3c(N)ncnc32)C1)CCOCCOCCOCCOCCON(C)C(=O)N1N=C(c2cc(F)ccc2F)SC1(CCCN)c1ccccc1 (stereo partly shown) [Compound I-50] | –
9 | < 50 | – | < 50 | CN(C/C=C/C(=O)N1CCC[C@@H](n2nc(-c3ccc(Oc4ccccc4)cc3)c3c(N)ncnc32)C1)CCOCCOCCOCCOCCOCCOCCON(C)C(=O)N1N=C(c2cc(F)ccc2F)SC1(CCCN)c1ccccc1 (stereo partly shown) [Compound I-52] | –
10 | < 50 | – | 50 to 500 | CN(OCCOCCOCCOCCOCCOCCOCCOCCOCCOC/C=C/C(=O)N1CCC[C@@H](n2nc(-c3ccc(Oc4ccccc4)cc3)c3c(N)ncnc32)C1)C(=O)N1N=C(c2cc(F)ccc2F)SC1(CCCN)c1ccccc1 (stereo partly shown) [Compound I-53] | –
11 | – | – | < 50 | CN(C/C=C/C(=O)N1CCC[C@@H](n2nc(-c3ccc(Oc4ccccc4)cc3)c3c(N)ncnc32)C1)CCOCCOCCOCCOCCOCCOCCOCCOCCON(C)C(=O)N1N=C(c2cc(F)ccc2F)SC1(CCCN)c1ccccc1 (stereo partly shown) [Compound I-54] | –
